Experimental data as given in patent publication US8012959B2, “Diaminopyrimidinecarboxamide derivative” (Astellas Pharma Inc., priority 2002, dated 2011).

Experiments:
[1] = molecular target: T1, STAT 6 (Mus musculus, UniProt P52633); experiment: STAT 6-dependent reporter activity (IL-4-stimulated CI/FW4 luciferase reporter cell); assay type: cell-based, human
T1 construct: An STAT 6 reporter cell CI/FW4 was constructed by the above operation; endogenous in cells; host or cells: CI/FW4 (FW4 cell stably carrying the pGL2-CI/bs luciferase reporter)
T1 sequence (P52633 1-837): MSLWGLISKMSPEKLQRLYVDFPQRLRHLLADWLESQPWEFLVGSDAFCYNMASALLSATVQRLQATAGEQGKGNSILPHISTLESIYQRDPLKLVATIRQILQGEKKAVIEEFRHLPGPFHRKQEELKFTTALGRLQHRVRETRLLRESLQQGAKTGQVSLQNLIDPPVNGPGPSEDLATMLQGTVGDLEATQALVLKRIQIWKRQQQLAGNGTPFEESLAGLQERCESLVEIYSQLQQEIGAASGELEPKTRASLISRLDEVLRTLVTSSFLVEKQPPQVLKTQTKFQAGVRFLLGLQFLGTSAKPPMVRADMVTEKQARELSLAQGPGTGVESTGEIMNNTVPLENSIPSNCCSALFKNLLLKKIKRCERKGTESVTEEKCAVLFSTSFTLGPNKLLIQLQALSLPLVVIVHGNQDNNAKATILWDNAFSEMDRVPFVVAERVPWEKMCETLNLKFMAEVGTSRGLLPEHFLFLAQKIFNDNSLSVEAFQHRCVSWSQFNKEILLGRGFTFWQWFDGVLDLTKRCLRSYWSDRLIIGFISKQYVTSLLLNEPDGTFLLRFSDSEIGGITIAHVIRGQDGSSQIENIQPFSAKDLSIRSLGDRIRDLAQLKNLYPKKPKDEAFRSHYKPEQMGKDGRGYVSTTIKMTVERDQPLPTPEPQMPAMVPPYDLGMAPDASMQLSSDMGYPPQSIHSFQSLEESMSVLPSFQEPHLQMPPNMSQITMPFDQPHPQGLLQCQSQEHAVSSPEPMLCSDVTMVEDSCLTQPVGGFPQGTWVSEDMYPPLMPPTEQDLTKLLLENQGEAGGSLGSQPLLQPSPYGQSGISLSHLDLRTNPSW
Method: Measurement of STAT 6-Dependent Reporter Activity 1) Construction of STAT 6 Reactive Reporter Plasmid A STAT 6 reporter plasmid pGL2-CI was prepared by the following method. […] Also, […] sequence DNA molecules (SEQ ID NOs:3 and 4) contained in the adenovirus major late promoter were annealed and inserted into BglII and HindIII sites of the same vector. Thereafter, pGL2-CI/bs was constructed by inserting the blasticidin resistance gene of pUCSV-BD (Funakoshi) into BamHI site of the constructed pGL2-CI. 2) Construction of STAT 6 Reporter Cell Gene transfer of […] into a human IL-4 reactive cell FW4 cell (Mol. Cell. Biol., 14: 5433-5440) was carried out by the electroporation method (320 V, 960 μF/0.4 cm cuvette (Nippon Bio-Rad Laboratories)), and 6 μg/ml of blasticidin (Funakoshi) was added 40 hours thereafter to select a resistant cell. Confirmation of constant transfer of the reporter plasmid was carried out by detecting luciferase induce by IL-4 stimulation. An STAT 6 reporter cell CI/FW4 was constructed by the above operation. 3) STAT Reporter Assay Using CI/FW4 Cell Stimulation of the CI/FW4 cell (1×10^4 cells/0.1 ml) with 10 ng/ml of human IL-4 (Genzyme Techne) was carried out using a white 96 well plate (Nunc). In the case of the evaluation of compounds, compound dilutions were added to the wells before inoculating the cells into the 96 well plate. […] Thereafter, 50 μl of a luciferase substrate solution (10 mM Tris-HCl pH 7.8, 5 mM luciferin, 2 mM coenzyme A, 2 mM ATP, 0.5 mM MgCl2 and 2 mM Mg(OH)2) was added, followed by stirring for 1 minute. Then, the luciferase activity was measured using ML3000 luminometer (Dynatech Laboratories, Inc). Inhibitory activities of tested compounds were evaluated in which the luminescence intensity (relative light unit: […] The results are shown in the following Table 26.

[2] = test system: T cells; experiment: Th2 differentiation (IL-4 production by differentiated mouse spleen T cells, ELISA); assay type: cell-based; conditions: inhibition of Th2 differentiation (IL-4 production, ELISA), C57BL/6 mouse spleen T cells
Method: Measurement of Th2 Differentiation
T cells were prepared by removing nylon wool (Wako Pure Chemical Industries)-adhering cells from C57BL/6 mouse (Charles River Japan) spleen cells. Using a 96 well plate to which an anti-CD3ε antibody (10 μg/ml) (Sederlane) had been immobilized in advance, T cells (2×10^5 cells/0.2 ml) were inoculated under stimulation with anti-CD28 antibody (1 μg/ml) (Pharmingen), IL-2 (10 ng/ml) (Peprotech) and IL-4 (10 ng/ml) (Peprotech). After 2 days of the culturing, total volume of the cell suspension was diluted to 2 ml with a medium containing IL-2 (10 ng/ml) and IL-4 (10 ng/ml). The differentiation was induced by further carrying out the culturing for 3 days. By counting the cell density, the cells after differentiation were adjusted to 1×10^6 cells/ml and inoculated into a 96 well plate immobilized with the anti-CD3 ε antibody, in order to induce IL-4 production. The supernatant after 24 hours of the stimulation was recovered, and the IL-4 production was determined by an ELISA method. The antibody used in the ELISA was purchased from Pharmingen. Also, an HRPO-labeled streptoavidin (Amersham Pharmacia) was used in the detection of biotinylated antibody, and a peroxidase color developing reagent (Sumitomo Bakelite) was used in the HRPO color development. In the case of the evaluation of compounds, compound dilutions were added to the wells before the addition of T cells, at the time of the dilution 2 days later, compounds equivalent to the initial concentration were added. Also, regarding the dilution of compounds, dilution was carried out using 10% FBS-containing RPMI 1640 such that the final concentration of DMSO in which each compound was dissolved became 0.1% or less. Inhibitory activity of each tested compound was evaluated in which the IL-4 production when DMSO was added instead of the compound was regarded as 100%, and the IL-4 production when anti-CD28 antibody and IL-4 were not added as 0%.

[3] = inhibition ratio at 0.1 μM compound, IL-4-stimulated CI/FW4 cell, luciferase
[4] = inhibition ratio at 1 μM compound, IL-4-stimulated CI/FW4 cell, luciferase

Structure (SMILES)	inhibition at 0.1 µM [1, 3]	inhibition at 1 µM [1, 4]	Inh (%) [2]	Inh (%) 0.1 μM [1, 3]	Inh (%) 1 μM [1, 4]	inhibition of STAT 6-dependent reporter activity (activity similar to the compounds of Table 26) ([1]; CI/FW4 cell, 10 ng/ml human IL-4, luciferase)
NC(=O)c1cnc(Nc2ccc(N3CCOCC3)cc2)nc1NCc1ccccc1 [Example 3, 4-benzylamino-2-{[4-(morpholin-4-yl)phenyl]amino}pyrimidine-5-carboxamide]	100%	100%	98%			
COc1ccccc1CNc1nc(Nc2ccc(N3CCOCC3)cc2)ncc1C(N)=O [Example 35]			94%	95%	100%	
Cc1cccc(Nc2nc(NCCc3ccc(O)c(Cl)c3)ncc2C(N)=O)c1 [Production Example 99]			85%			good activity
